Where two headings read alike, the source gives them in different places.
Columns and labels:
[1] = target: T1, dDATNET (Drosophila melanogaster, UniProt Q7K4Y6, D121G/DEL162-202/F471L/L415A/S426M/V74A); assay: biochemical; format: binding
T1 construct: GFP-8x-His (C); made in house; host or cells: HEK293S GnTI- cells, BacMam baculovirus transduction
Procedure: (§1) Binding assays were performed with 20 nM of purified dDAT protein by scintillation proximity assay. For determining nisoxetine Kd, [^3H] Nisoxetine (Perkin Elmer) (in 1:5 molar ratio) was used in the range of 0.1 nM to 500 nM with 100 µM desipramine added to the control samples. Competition assays were done with 50 nM [^3H] […] The assays were done in 1 mM DDM, 0.2 mM CHS, 20 mM Tris-Cl (pH 8), 300 mM NaCl and 5% glycerol. The background values were subtracted to plot the final curves in GraphPad prism v5.0.1 and the Kd values were calculated. The IC50 values obtained from binding competition assays were used to deduce the Ki values by Cheng–Prusoff’s equation.

[2] = target: hNET; conditions: read-out: Uptake Inhibition Ki, hNET; cited from earlier work
[3] = target: hNET; conditions: read-out: Binding Inhibition (Ki), hNET; cited from earlier work
[4] = target: T2, dDATfc (Drosophila melanogaster dopamine transporter functional construct) (Drosophila melanogaster, UniProt Q7K4Y6, DEL164-191/F471L/L415A/V74A); assay: cell-based
T2 construct: expressed in transfected cells; host or cells: HEK293S GnTI- cells, transient transfection with pEG-BacMam plasmid
Procedure: (§2) Additional mutations in the subsite B or subsite C were incorporated into this gene used for carrying out the uptake assays.
(§3) Cells were transiently transfected with pEG-BacMam plasmid harboring the dDAT cGFP gene and incubated for 35–40 hrs at 37 °C with 5% CO2 and 80% humidity. […] The transport activity was arrested with 0.5 ml of pre-chilled assay buffer containing 100 μM desipramine (Sigma Aldrich) added to each reaction. The cells were then washed twice with the same buffer before solubilizing them in 0.1 ml of 20 mM DDM for one hour at room temperature. […] Following this, 0.1 ml of the supernatant was added to 0.5 ml of scintillation fluid (Ultima Gold, Perkin Elmer) and the radioactivity was estimated on MicroBeta scintillation counter (Perkin Elmer). […] The background-subtracted, dose–response plots were analyzed using GraphPad Prism v.5.0.1 and Ki values were determined from Cheng–Prusoff’s equation using the IC50 values obtained from the experiments.

[5] = target: hDAT; conditions: read-out: Uptake Inhibition Ki, hDAT; ref 4 (Supplementary: Vaishnavi et al., 2004); cited from earlier work
[6] = target: T3, dDATfc A117S/A428S (Drosophila melanogaster, UniProt Q7K4Y6, A117S/A428S/DEL164-191/F471L/L415A/V74A); assay: cell-based; format: cell-based
T3 construct: expressed in transfected cells; host or cells: HEK293S GnTI- cells, transient transfection with pEG-BacMam plasmid
Procedure: (§4) Earlier studies have posited that non-conserved residues in the primary binding site are responsible for selective inhibition of biogenic amine uptake[57],[58]. […] Effects of these mutations were analyzed through uptake inhibition using the three SNRIs employed in this study (Fig. 6a–c). […] Supplementary Table 2)[56],[59].
as §2, §3

[7] = target: T4, dDATmfc (Drosophila melanogaster, UniProt Q7K4Y6, DEL162-202/F471L/L415A/V74A); assay: biochemical; conditions: read-out: Percent binding
T4 construct: GFP-8x-His (C); made in house; host or cells: HEK293S GnTI- cells, BacMam baculovirus transduction
Procedure: as §1

[8] = target: T5, dDATfc A428S (Drosophila melanogaster, UniProt Q7K4Y6, A428S/DEL164-191/F471L/L415A/V74A); assay: cell-based
T5 construct: expressed in transfected cells; host or cells: HEK293S GnTI- cells, transient transfection with pEG-BacMam plasmid
Procedure: as §4, §2, §3

[9] = target: T6, dDATfc A117S (Drosophila melanogaster, UniProt Q7K4Y6, A117S/DEL164-191/F471L/L415A/V74A); assay: cell-based
T6 construct: expressed in transfected cells; host or cells: HEK293S GnTI- cells, transient transfection with pEG-BacMam plasmid
Procedure: as §4, §2, §3

[10] = target: hDAT; design: method as in earlier work; conditions: vs. RTI-55; ref 4 (Supplementary: Vaishnavi et al., 2004); read-out: Binding Inhibition (Ki), hDAT; cited from earlier work

## CCN(CC)C(=O)[C@]1(c2ccccc2)C[C@@H]1CN [Milnacipran, 1R-2S milnacipran]
[1]; Binding Ki with dDATNET (vs. Nisoxetine), 50 nM [3H] nisoxetine, Cheng-Prusoff
  Ki: 605 ± 25.3 nM
[1]; read-out: Percent binding, DAT NET, Log Milnacipran (M) -3.52288, replicate values
  remaining activity at 300 µM: 3.09%
[1]; read-out: Percent binding, DAT NET, Log Milnacipran (M) -4, replicate values
  remaining activity at 100 µM: 12%
[1]; read-out: Percent binding, DAT NET, Log Milnacipran (M) -4.52288, replicate values
  remaining activity at 30 µM: 31.5%
[1]; read-out: Percent binding, DAT NET, Log Milnacipran (M) -5, replicate values
  remaining activity at 10 µM: 60%
[1]; read-out: Percent binding, DAT NET, Log Milnacipran (M) -5.52288, replicate values
  remaining activity at 3 µM: 78.6%
[2]
  Ki: 52 ± 9 nM
[3]
  Ki: 22 ± 2.58 nM
[4]
  IC50: 2400 ± 100 nM
  Ki: 1500 ± 100 nM
[4]; HEK293S, 0.5 h, read-out: Percent inhibition of DA uptake, dDATfc, Log[compound] M = -4, single replicates
  inhibition at 100 µM: 3.99%
[4]; HEK293S, 0.5 h, read-out: Percent inhibition of DA uptake, dDATfc, Log[compound] M = -4.52288, single replicates
  inhibition at 30 µM: 6.55%
[4]; HEK293S, 0.5 h, read-out: Percent inhibition of DA uptake, dDATfc, Log[compound] M = -5, single replicates
  inhibition at 10 µM: 22.7%
[4]; HEK293S, 0.5 h, read-out: Percent inhibition of DA uptake, dDATfc, Log[compound] M = -5.52288, single replicates
  inhibition at 3 µM: 46.8%
[4]; HEK293S, 0.5 h, read-out: Percent inhibition of DA uptake, dDATfc, Log[compound] M = -6, single replicates
  inhibition at 1 µM: 82.4%
[5]
  Ki: > 100 µM
[6]
  IC50: 8.9 ± 0.3 µM
[6]; 0.5 h, read-out: Percent inhibition of DA uptake, A117S_A428S, Log[compound] M = -4, single replicates
  inhibition at 100 µM: 6.51%
[6]; 0.5 h, read-out: Percent inhibition of DA uptake, A117S_A428S, Log[compound] M = -4.52288, single replicates
  inhibition at 30 µM: 16.4%
[6]; 0.5 h, read-out: Percent inhibition of DA uptake, A117S_A428S, Log[compound] M = -5, single replicates
  inhibition at 10 µM: 35.5%
[6]; 0.5 h, read-out: Percent inhibition of DA uptake, A117S_A428S, Log[compound] M = -5.52288, single replicates
  inhibition at 3 µM: 78.6%
[6]; 0.5 h, read-out: Percent inhibition of DA uptake, A117S_A428S, Log[compound] M = -6.52288, single replicates
  inhibition at 0.3 µM: 91.2%
[6]; 0.5 h, read-out: Percent inhibition of DA uptake, A117S_A428S, Log[compound] M = -7, single replicates
  inhibition at 0.1 µM: 87.2%
[6]; 0.5 h, read-out: Percent inhibition of DA uptake, A117S_A428S, Log[compound] M = -7.52288, single replicates
  inhibition at 0.03 µM: 89.7%
[7]; DATmfc, Log Milnacipran (M) -5, replicate values
  remaining activity at 10 µM: 21.2%
[7]
  remaining activity at 0.03 µM: 98.1%
  remaining activity at 0.3 µM: 86.3%
  remaining activity at 3 µM: 47.5%
[8]
  IC50: 6.6 ± 0.4 µM
[8]; 0.5 h, read-out: Percent inhibition of DA uptake, A428S, Log[compound] M = -4, single replicates
  inhibition at 100 µM: 7.1%
[8]; 0.5 h, read-out: Percent inhibition of DA uptake, A428S, Log[compound] M = -4.52288, single replicates
  inhibition at 30 µM: 15.3%
[8]; 0.5 h, read-out: Percent inhibition of DA uptake, A428S, Log[compound] M = -5, single replicates
  inhibition at 10 µM: 34.4%
[8]; 0.5 h, read-out: Percent inhibition of DA uptake, A428S, Log[compound] M = -5.52288, single replicates
  inhibition at 3 µM: 73.5%
[8]; 0.5 h, read-out: Percent inhibition of DA uptake, A428S, Log[compound] M = -7, single replicates
  inhibition at 0.1 µM: 107%
[8]; 0.5 h, read-out: Percent inhibition of DA uptake, A428S, Log[compound] M = -7.52288, single replicates
  inhibition at 0.03 µM: 100%
[9]
  IC50: 2800 ± 200 nM
[9]; 0.5 h, read-out: Percent inhibition of DA uptake, A117S, Log[compound] M = -5, single replicates
  inhibition at 10 µM: 21.8%
[9]; 0.5 h, read-out: Percent inhibition of DA uptake, A117S, Log[compound] M = -5.63827, single replicates
  inhibition at 2.3 µM: 62.3%
[9]; 0.5 h, read-out: Percent inhibition of DA uptake, A117S, Log[compound] M = -6, single replicates
  inhibition at 1 µM: 87.2%
[9]; 0.5 h, read-out: Percent inhibition of DA uptake, A117S, Log[compound] M = -7, single replicates
  inhibition at 0.1 µM: 99.6%
[9]; 0.5 h, read-out: Percent inhibition of DA uptake, A117S, Log[compound] M = -7.63827, single replicates
  inhibition at 0.023 µM: 94.7%
[10]
  Ki: > 100 µM
